Experimental data taken from article PMC4581690, “Targeting Lysine Deacetylases (KDACs) in Parasites” (PLoS Neglected Tropical Diseases, 2015).
pEC50, pIC50: −log10 of the molar value. Read-outs that look alike come from different tables or passages of the source.

What was measured:
P. falciparum 3D7 strain = assay: MAL vt: Malaria viability assay; assay type: cell-based; conditions: Plasmodium falciparum
[1] = tested on: L. donovani strain MHOM/SD/00/LS; assay: LEI axe: Leishmania axenic amastigote assay; assay type: cell-based
T. brucei strain S427 = assay: HAT vt: Human African trypanosoma viability assay; assay type: cell-based; conditions: 72 hour, resazurin, read-out: measured activity (IC50), HAT vt, TbbS427
L929 mouse fibroblast = assay: CYT vt: cytotoxicity viability assay; assay type: cell-based
[2] = tested on: parasite species and L929 mouse fibroblast; assay: In vitro screening of compounds against parasite panel and mammalian cell line (overall statements); assay type: cell-based
human cancer cell lines = tested on: human cancer cell lines; design: method as in PMID 23526814; conditions: 8b and 10c therein; cited from earlier work
Dirofilaria immitis = assay: Endoparasites_DR: endoparasites dose response assay, D. immitis; assay type: cell-based; conditions: 72 h, read-out: measured activity (EC50), Endoparasites_DR, D. immitis
Brugia malayi = assay: Endoparasites_DR: endoparasites dose response assay, B. malayi; assay type: cell-based
Haemonchus contortus = assay: microbe, parasite or virus in culture; assay type: cell-based; conditions: 96 hour, read-out: measured activity (EC50), Endoparasites_DR, H. contortus
[3] = 3D7, 0.25 h, timepoint 15 minute, read-out: measured activity (IC50), MAL vt, PfDd2
[4] = 72 hour, axenic amastigotes, resazurin, read-out: measured activity (IC50), LEI axe, Ld1S
[5] = Mus musculus, L929, read-out: measured activity (IC50), CYT vt, L929
[6] = Mus musculus, Table 2, column H. sapiens, same values as L929 in Table 1, read-out: EC50(IC50)
[7] = 120 h, 5 day, read-out: measured activity (EC50), Endoparasites_DR, B. malayi
[8] = Table 2, column B. malayi, read-out: EC50(IC50)

| SMILES | pIC50 (P. falciparum 3D7 strain; [3]) | pIC50 [1, 4] | pIC50 (T. brucei strain S427) | pIC50 (L929 mouse fibroblast; [5]) | also measured |
| --- | --- | --- | --- | --- | --- |
| O=C(CCCCCCC(=O)Nc1ccccc1)NO [GRM1, SAHA, reference compound] | 6.82 | – | – | – | – |
| CN1CCc2c(c3ccccc3n2Cc2ccc(C(=O)NO)cc2)C1 [GRM2, Tubastatin, reference compound] | – | < 5.30 | 5.57 | 5.21 | – |
| O=C(CCCCSc1nc(-c2ccc(-c3ccccc3)cc2)cc(=O)[nH]1)NO [MC1742] | > 8.00 | – | – | 5.82 | – |
| O=C(CCCCCSc1nc2ccccc2c(=O)[nH]1)NO [MC1862] | 5.94 | – | – | 5.15 | – |
| COc1cc(-c2ccccc2)nc(SCc2ccc(/C=C/C(=O)NO)cc2)n1 [MC2126] | 5.72 | < 5.30 | 6.36 | 5.75 | – |
| O=C(/C=C/c1ccc(NC(=O)C(Cc2ccccc2)c2ccccc2)cn1)NO (stereo not drawn) [MC2625] | 7.66 | < 5.30 | 5.93 | 6.51 | – |
| CC(C)(C)OC(=O)Nc1ccc(-c2cc(C(=O)NCCCCCCC(=O)NO)no2)cc1 [MC2726] | 6.72 | – | – | – | pIC50 (L929 mouse fibroblast; L929 mouse fibroblast, read-out: measured activity (IC50), CYT vt, L929): 5.72 |
| CC(C)(C)OC(=O)Nc1cccc(-c2cc(C(=O)NCCCCCCC(=O)NO)no2)c1 [MC2727a] | 6.02 | – | – | 5.63 | – |
| Cn1cc(/C=C/C(=O)c2cccc(NC(=O)OC(C)(C)C)c2)cc1C(=O)NO [MC2776] | – | – | – | – | efficacy in the protists ([2]; T. brucei, L. donovani, P. falciparum): did not show any efficacy; pIC50 (L929 mouse fibroblast; [6]): < 5.00; pIC50 (human cancer cell lines): < 5.00; pEC50 (Dirofilaria immitis): < 5.00; pEC50 (Brugia malayi; [7]): 5.36; pEC50 (Brugia malayi; [8]): 5.36 |
| CC(C)(C)OC(=O)Nc1cccc(C(=O)/C=C/c2ccc(/C=C/C(=O)NO)cc2)c1 [MC2780] | 7.25 | 6.33 | 6.21 | – | pIC50 ([1]; Table 2, column L. donovani, read-out: EC50(IC50)): 6.33; activity across parasites [2]: pan-parasite potential; pIC50 (P. falciparum 3D7 strain; 3D7, Table 2, column P. falciparum, read-out: EC50(IC50)): 7.22; pIC50 (L929 mouse fibroblast; [6]): 5.32; IC50 on human cancer cell lines (human cancer cell lines): more potent IC50; pEC50 (Dirofilaria immitis): 5.09; pEC50 (Brugia malayi; [7]): 5.60; pEC50 (Brugia malayi; [8]): 5.60 |
| CN(C)Cc1ccc(S(=O)(=O)n2ccc3cc(/C=C/C(=O)NO)ccc32)cc1 [MC3031] | – | < 5.30 | 6.57 | 6.26 | – |
| CCCCCCCC(=O)SCC/C=C/[C@@H]1CC(=O)NCc2nc(cs2)C2=N[C@@](C)(CS2)C(=O)N[C@@H](C(C)C)C(=O)O1 [SD-L-148, Largazole, reference compound] | – | – | – | 7.00 | pEC50 (Haemonchus contortus): 5.15 |
